# Laboratory results: PubChem BioAssay AID1329 (NMMLSC, 2008)
# The source made the active and inactive calls. How the calls were made is not given here.
# Target: Induced myeloid leukemia cell differentiation protein Mcl-1 (Homo sapiens) (UniProt Q07820)
# Assay: modulators of Bim peptide binding to Mcl-1, dose response, biochemical, bead-based flow cytometry, multiplexed, human (AID 1329)
# Details: Bim peptide-Mcl-1 binding, MCF
# Chain of Induced myeloid leukemia cell differentiation protein Mcl-1 (Homo sapiens) (Q07820 whole entry, looked up): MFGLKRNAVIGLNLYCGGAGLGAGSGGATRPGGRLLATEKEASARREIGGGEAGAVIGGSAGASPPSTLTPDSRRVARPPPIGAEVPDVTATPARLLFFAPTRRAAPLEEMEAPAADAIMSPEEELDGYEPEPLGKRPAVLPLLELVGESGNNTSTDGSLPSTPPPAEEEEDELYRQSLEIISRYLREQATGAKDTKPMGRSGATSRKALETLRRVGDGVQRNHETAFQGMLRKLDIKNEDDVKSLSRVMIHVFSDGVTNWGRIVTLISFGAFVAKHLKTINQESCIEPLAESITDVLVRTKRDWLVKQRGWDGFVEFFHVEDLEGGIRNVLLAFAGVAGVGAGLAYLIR
row,SMILES,EC50
1,COc1cc(/C=N/Nc2nn3cnnc3c3ccccc23)ccc1O,inactive

# Same assay, conditions: Bim peptide-Mcl-1 binding, MCF
row,SMILES,percent span
1,Cc1cc[n+]2cc(-c3cccc([N+](=O)[O-])c3)c(-c3cccc([N+](=O)[O-])c3)cc2c1,inactive
2,O=C(C1=C(Nc2ccccc2)c2ccccc2S(=O)(=O)N1)c1ccccc1,inactive
3,COc1ccccc1-n1c(SCC(=O)N2CCc3ccccc32)nc2c(c1=O)SCC2,inactive
4,O=C(NC1=NCCS1)NC12CC3CC(CC(C3)C1)C2,inactive
5,CC(C)C(=O)N1CCN(c2ccc([N+](=O)[O-])cc2Cl)CC1,inactive
6,O=C(N/N=C/c1ccc(O)c(O)c1O)/C(=C/c1ccc([N+](=O)[O-])cc1)NC(=O)c1ccccc1,inactive
7,CN1N=C(C(=O)N2CCCC(C(=O)c3cccc(C(F)(F)F)c3)C2)CCC1=O (stereo not drawn),inactive
8,O=C(N/N=C/c1ccncc1)c1cccc(NC(=O)c2ccccc2Cl)c1,inactive
9,O=C(CSc1nnc(Cc2ccccc2)o1)NCc1ccco1,inactive
10,COc1ccc(NC(=O)C2=C(C)NC(=O)NC2c2cccc(OC)c2OC)c(OC)c1 (stereo not drawn),inactive
11,CCOc1ccccc1NC(=O)CSc1ccc2nnc(-c3cccnc3)n2n1,inactive
12,Cc1ccc2nc3c(cc(C(N)=S)c(=N)n3CCCOC(C)C)c(=O)n2c1,inactive
13,COc1ccccc1-n1c(-c2ccccc2)c[nH]c1=S,inactive
14,Cc1ccc(-n2c(CSc3nc(C)cc(C)n3)nnc2SCC(=O)NCc2ccco2)cc1,inactive
15,CCOc1ccccc1-n1c(=O)c2ccccc2c2ccccc2c1=O,inactive
16,CNc1ccc(Br)cc(C(=O)/C=C/c2ccc(OC)cc2)c1=O,inactive
17,COCc1cc(CN2CCCC(CNC(=O)c3ccc(F)cc3)C2)ccc1OC (stereo not drawn),inactive
18,N/C(Cc1ccc(Cl)c(Cl)c1)=N\OC(=O)c1cccs1,inactive
19,COc1ccc(S(=O)(=O)NCCSc2ccccc2)cc1OC,inactive
20,Cc1ccc(/C=C/C(=O)Nc2ccc([N+](=O)[O-])c(NC(=O)/C=C/c3ccc(C)o3)c2)o1,inactive
21,Nc1ccc(Nc2nc(-c3ccncc3)cs2)cc1,inactive
22,Cc1c(NC2=C(Cl)C(=O)N(c3ccccc3)C2=O)c(=O)n(-c2ccccc2)n1C,inactive
23,O=C(/C=C/c1c(F)cccc1Cl)Nc1ccncc1,inactive
24,Nc1c(C(=O)NCc2ccco2)sc2nc3c(cc12)C(=O)CCC3,inactive
25,O=C(N/N=C/c1ccc(-c2ccccc2[N+](=O)[O-])o1)c1cncc(Br)c1,inactive
26,Cn1c(=O)c2c(nc(NCCO)n2CCc2ccccc2)n(C)c1=O,inactive

row,SMILES,percent span
1,N=C1C(c2nc3ccccc3s2)=C(O)CN1Cc1ccccc1,inactive
2,Cc1ccc(C(=O)CCC(=O)Nc2ccc(Cl)c(S(=O)(=O)Nc3cccc(Cl)c3)c2)cc1,inactive
3,COC(=O)C1C2c3ccccc3OC1(C)N=c1s/c(=C/c3cnn(C)c3C)c(=O)n12 (stereo not drawn),inactive
4,O=C(COc1ccccc1Br)NCc1ccccn1,inactive
5,Cc1ccc(N=c2ssnc2Cl)cc1,inactive
6,COc1ccc(C(=O)Nc2ccc(NC(=O)c3cccs3)cc2)cc1Cl,inactive
7,CCN1CCN(c2cc(C)c3cc(NC(=S)N4CCN(c5ccccc5)CC4)ccc3n2)CC1,inactive
8,O=C(C1=NN[C@@H]2C(=O)N(c3ccccc3C(F)(F)F)C(=O)[C@H]12)c1ccc2ccccc2n1,inactive
9,Cc1occc1C(=O)NNC(=S)NCc1ccccc1,inactive
10,COC(=O)c1ccc(/C=N/NC(=O)CC(=O)NCc2cccnc2)cc1,inactive
11,Cc1ccc(-n2nc(C)c(C(=O)O)n2)c(C)c1,inactive
12,COC(=O)c1sc2nc[nH]c(=O)c2c1C,inactive
13,O=S1(=O)N=C(N(CCO)/N=C/c2ccncc2)c2ccccc21,inactive
14,COc1ccccc1Oc1ccc2c(c1)C(=O)N(c1ccccc1)C2=O,inactive
15,CCOC(=O)c1[nH]cnc1C(=O)NC(C)C,inactive
16,OCCC1CN(Cc2ccc3ncccc3c2)CCN1Cc1ccccc1 (stereo not drawn),inactive
17,Cc1cccc(N=C2NC(=O)/C(=C/C=C/c3ccco3)S2)c1C,inactive
18,CC1Nc2ccccc2C(=O)N1NS(C)(=O)=O (stereo not drawn),inactive
19,Cc1cc(C)n(CC(=O)N/N=C/c2cccc([N+](=O)[O-])c2)n1,inactive
20,N#Cc1cc(-c2ccccc2)nn1-c1ccccc1,inactive
21,CCOC(=O)c1cc2c(=O)n3cccc(C)c3nc2n(Cc2ccco2)c1=NC(=O)c1ccccc1,inactive
22,O=C1c2ccccc2-c2onc3ccc(NCCCn4ccnc4)c1c23,inactive
23,O=C(O)c1ccc(NS(=O)(=O)c2ccc3c(c2)C(=O)c2ccccc2C3=O)cc1,inactive
24,O=C(C1=NN[C@@H]2C(=O)N(c3cccc(F)c3)C(=O)[C@H]12)c1ccc2ccccc2n1,inactive
25,COc1ccc(NC(=O)c2sccc2SCc2cccc(C(F)(F)F)c2)cc1,inactive
26,CCC(CC)C(=O)Nc1cccc(SC)c1,inactive

row,SMILES,percent span
1,COc1ccccc1NC(=O)CSc1nnc(-c2ccco2)n1Cc1ccco1,inactive
2,O=C(Nc1nnc(SCc2ccccn2)s1)C1CC(=O)N(c2ccccc2)C1 (stereo not drawn),inactive
3,COc1ccc(C(=O)/C=C/c2cc(OC)c(O)c(OC)c2)c(F)c1,inactive
4,CCN(CC)CCN(C(=O)c1ccc(N2C(=O)CCC2=O)cc1)c1nc2cc3c(cc2s1)OCCO3,inactive
5,CCOc1ccc(C(=O)Nc2nnn(CC)n2)cc1,inactive
6,CCOc1cc(C2Nc3cccc4cccc(c34)N2)ccc1O,inactive
7,O=C(/C=C/c1ccc(-c2ccccc2)o1)c1ccccc1,inactive
8,Cc1ccc(C(=O)N(CCCN(C)C)c2nc3ccc(Cl)cc3s2)cc1C,inactive
9,CCc1cccc(CC)c1-n1c(-c2cccnc2)n[nH]c1=S,inactive
10,CCOC(=O)C1=C(CC)Nc2ccccc2N=C1NC(=O)c1ccc(S(=O)(=O)N2CCOCC2)cc1,inactive
11,Cc1ccc(-c2cc(-c3ccccc3)c(C#N)c(N)n2)o1,inactive
12,CCN(CC)c1ccc(-c2nn3c(-c4n[nH]c5c4CCC5)nnc3s2)cc1,inactive
13,COC(=O)Cc1cc(=O)[nH]c(Nc2nc3ccccc3o2)n1,inactive
14,Cc1ccc(C(=O)NNC(=O)c2ccc3ncccc3c2)cc1,inactive
15,COc1ccccc1Nc1nc(-c2c(C)nc3ncccn23)cs1,inactive
16,COC(=O)CSc1ncnc2c1sc1nc(-c3ccco3)c3c(c12)CC(C)(C)OC3,inactive
17,O=C(O)c1ccccc1NSc1ccccc1[N+](=O)[O-],inactive
18,OC(CNC1CCCCC1)COCCOc1ccc(Br)cc1 (stereo not drawn),inactive
19,COc1ccc(N2CCN(C(=O)c3cc(=O)[nH]c4ccccc34)CC2)cc1,inactive
20,COc1ccc(CCNC(=O)c2cc(-c3ccccn3)nc3c(Cl)cccc23)cc1OC,inactive
21,COc1cccc2c1C(=O)C=C(C)C2=O,inactive
22,BrC(=C\c1ccccc1)/C=N/N1CCN(c2ccccc2)CC1,inactive
23,COc1cc(/C=N/NC(=O)c2ccc([N+](=O)[O-])cc2Cl)cc(Br)c1O,inactive
24,Cc1cc(Cl)ccc1N=c1ssnc1Cl,inactive
25,COc1ccccc1-n1c(-c2ccc(Cl)cc2)c[nH]c1=S,inactive
26,COc1cccc(NC(=O)CSc2nncn2N)c1,inactive

row,SMILES,percent span
1,COC(=O)c1cc(OC)c(OC)cc1NC(=O)Nc1cccc(C(C)=O)c1,inactive
2,Cc1ccc2c(c1)C1CN(C)CCC1N2C(=O)Nc1cccc(Cl)c1 (stereo not drawn),inactive
3,Cc1ccc(Nc2nc(-c3ccccc3)c(CC(=O)O)s2)cc1,inactive
4,Fc1ccc(Cn2nnnc2C(c2ccc(Cl)cc2)N2CCSCC2)cc1 (stereo not drawn),inactive
5,CC1=NN(c2ccc(C)cc2)C(=O)/C1=C\c1ccc(Br)s1,inactive
6,CN(CCc1ccccn1)C(=O)CCC1CCCN(C(=O)NC2CCCCC2)C1 (stereo not drawn),inactive
7,O=C1C=C(Nc2ccccc2)C(=O)c2ccccc21,inactive
8,Cc1ccc(-c2cc(C(=O)Nc3ccccn3)c3ccccc3n2)o1,inactive
9,Cc1onc(-c2ccccc2)c1C(=O)Nc1nnc(COc2ccc(Cl)cc2)s1,inactive
10,CCOc1ccc(NCc2ccccc2OCc2cccc(F)c2)cc1,inactive
11,COc1ccc(NC(=O)c2ccc(CN3CCN(c4ccccc4)CC3)cc2)cc1,inactive
12,O=C1c2ccccc2C(=O)c2cc(S(=O)(=O)Nc3ccccc3)ccc21,inactive
13,CCCCOC(=O)c1nc(Cl)c(Cl)c(N)c1Cl,inactive
14,Cc1cc(N2CCN(C)CC2)nc2ccc(NC(=S)N3CCC4(CC3)OCCO4)cc12,inactive
15,CCN1CCN(c2cc(C)c3cc(NC(=S)N4CCN(c5ccc(F)cc5)CC4)ccc3n2)CC1,inactive
16,COc1ccc(-n2cc(-c3ccc(OC)c(OC)c3)[nH]c2=S)cc1,inactive
17,C/C(=N/NC(=O)c1cc(O)c(O)c(O)c1)c1ccc([N+](=O)[O-])cc1,inactive
18,Cc1cccc(-c2nnc3n2N=C(c2ccccc2)CS3)c1,inactive
19,O=C(Nc1ccc(N2CCOCC2)cc1)Nc1ccc2nc(-c3ccco3)c(-c3ccco3)nc2c1,inactive
20,COc1ccc(-n2c(SCC(=O)Nc3ccc(C(=O)O)cc3)nnc2-c2cccs2)cc1,inactive
21,COC(=O)/C(=C/c1ccc(F)cc1)NC(C)=O,inactive
22,CC(=O)Nc1ccc2nc(CN3CCN(CC(C)C)C(CCO)C3)ccc2c1 (stereo not drawn),inactive
23,C/C(=N\NC(=O)Cc1cccn1C)c1ccc2ccccc2c1,inactive
24,CN1CCS/C1=C/C=C1/SC(=S)N(Cc2ccccc2)C1=O,inactive
